Assay results published in patent publication US8426587B2, “Haloallylamine inhibitors of SSAO/VAP-1 and uses therefor” (Pharmaxis Ltd., priority 2007, dated 2013).
Where a name gives a salt, the structure may show the parent alone. Read-outs that look alike come from different tables or passages of the source.

What was measured:
SSAO/VAP-1 = biological target: T1, SSAO/VAP-1 (Mus musculus, UniProt O70423); assay: In vivo inhibition of SSAO/VAP-1 activity in mouse genital fat; parameters: species or system BALB/C mice; details: ip
T1 construct: the genital fat was excised and frozen; The tissue was homogenized; from tissue; host or cells: genital fat of BALB/C mice
T1 sequence (O70423 1-765): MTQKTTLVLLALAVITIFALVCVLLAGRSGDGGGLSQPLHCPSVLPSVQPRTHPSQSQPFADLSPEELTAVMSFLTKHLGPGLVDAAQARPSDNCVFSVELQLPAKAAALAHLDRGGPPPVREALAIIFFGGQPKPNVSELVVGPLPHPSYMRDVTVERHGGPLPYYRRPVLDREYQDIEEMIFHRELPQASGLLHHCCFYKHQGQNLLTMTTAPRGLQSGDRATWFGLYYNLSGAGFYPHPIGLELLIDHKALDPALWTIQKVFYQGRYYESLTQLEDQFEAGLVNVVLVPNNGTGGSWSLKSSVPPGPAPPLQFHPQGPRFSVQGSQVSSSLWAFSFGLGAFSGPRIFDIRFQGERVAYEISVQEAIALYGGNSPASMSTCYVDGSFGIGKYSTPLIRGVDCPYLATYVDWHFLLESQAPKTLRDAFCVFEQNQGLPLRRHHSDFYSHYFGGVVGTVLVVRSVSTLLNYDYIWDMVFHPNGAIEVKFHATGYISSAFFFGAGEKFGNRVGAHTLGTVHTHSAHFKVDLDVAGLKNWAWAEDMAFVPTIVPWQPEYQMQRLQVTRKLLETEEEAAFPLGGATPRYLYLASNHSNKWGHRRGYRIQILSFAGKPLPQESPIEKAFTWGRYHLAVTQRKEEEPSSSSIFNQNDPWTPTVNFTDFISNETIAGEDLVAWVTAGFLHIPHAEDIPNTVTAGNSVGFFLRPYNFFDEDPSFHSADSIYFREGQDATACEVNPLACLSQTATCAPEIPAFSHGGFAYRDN
Method: In vivo inhibition was assessed in mouse genital fat, a tissue with high SSAO/VAP-1 expression. 10 BALB/C mice (5 males and 5 females) were administered 0 mg/kg, 10 mg/kg, 30 mg/kg or 100 mg/kg SSAO/VAP-1 inhibitor by intraperitoneal injection. Two hours after administration the mice were sacrificed and the genital fat was excised and frozen. The tissue was homogenized in 0.01 M sodium phosphate buffer pH 7.4 (10 mL/g) and used to measure SSAO activity using Amplex® Red. ED50 was estimated Using Graphpad Prism software.

Human SSAO/VAP-1 = biological target: T2, Human SSAO/VAP-1 (Homo sapiens, UniProt Q16853); assay: Inhibition of amine oxidase activity of purified human SSAO/VAP-1 (Amplex Red); assay type: biochemical; details: purified human SSAO, 300 μM benzylamine
T2 sequence (Q16853 1-763): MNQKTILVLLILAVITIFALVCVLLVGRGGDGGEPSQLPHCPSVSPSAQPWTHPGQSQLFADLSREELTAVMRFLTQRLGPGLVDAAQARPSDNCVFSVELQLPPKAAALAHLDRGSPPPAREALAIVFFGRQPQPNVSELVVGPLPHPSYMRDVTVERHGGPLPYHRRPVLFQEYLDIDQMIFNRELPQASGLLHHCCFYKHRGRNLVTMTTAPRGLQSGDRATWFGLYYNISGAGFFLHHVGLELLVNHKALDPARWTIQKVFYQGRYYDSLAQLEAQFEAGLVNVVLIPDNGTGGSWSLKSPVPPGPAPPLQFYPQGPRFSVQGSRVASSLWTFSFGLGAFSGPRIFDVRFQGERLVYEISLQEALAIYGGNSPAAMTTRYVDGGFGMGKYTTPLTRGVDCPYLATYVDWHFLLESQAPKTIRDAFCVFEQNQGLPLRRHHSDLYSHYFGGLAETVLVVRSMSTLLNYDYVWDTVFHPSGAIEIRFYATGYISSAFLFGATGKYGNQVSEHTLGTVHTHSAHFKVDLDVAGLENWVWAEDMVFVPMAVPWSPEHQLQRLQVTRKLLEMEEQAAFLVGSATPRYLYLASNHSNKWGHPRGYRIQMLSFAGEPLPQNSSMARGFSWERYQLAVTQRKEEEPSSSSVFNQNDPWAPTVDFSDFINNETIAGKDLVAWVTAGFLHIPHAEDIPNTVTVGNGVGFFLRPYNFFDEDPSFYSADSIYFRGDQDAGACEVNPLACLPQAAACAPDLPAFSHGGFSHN
Method: To measure the SSAO activity, adipocyte homogenate (0.5 mg/mL) or adipocytes (adhering cells) containing 0.5 mM pargyline, or purified human SSAO was incubated in 0.1 M sodium phosphate buffer pH 7.4 with varying concentrations of test compounds for 30 min at 37° C. The homogenate was then incubated at 37° C. with 60 μM Amplex® Red, 0.75 U/mL HRP and 40 μM benzylamine (mouse SSAO) or 300 μM benzylamine (human SSAO) and the formation of resorufin was measured (excitation range 530-560 nm and emission at 590 nm) every 10 min in either a Tecan Infinite 200 or a BMG plate reader. The IC50 values were estimated using Graphpad Prism software. The IC50 is an estimation of the concentration of the test compound to inhibit the amine oxidase activity of SSAO/VAP-1 by 50%. The IC50 values of certain invention compounds are included in Table 1.

[1] = female BALB/C mice, intraperitoneal, genital fat SSAO activity two hours after administration, read-out: Female Mice ED50 [ip]
[2] = male BALB/C mice, intraperitoneal, genital fat SSAO activity two hours after administration, read-out: Male Mice ED50 [ip]

Row | SMILES | ED50 (SSAO/VAP-1; [1]) [mg/kg] | ED50 (SSAO/VAP-1; [2]) [mg/kg] | IC50 (Human SSAO/VAP-1; 30 min at 37° C. preincubation) [µM] | IC50 (Human SSAO/VAP-1) [µM] | ED50 (SSAO/VAP-1; read-out: Female Mice ED50 [ip]) [mg/kg] | ED50 (SSAO/VAP-1; read-out: Male Mice ED50 [ip]) [mg/kg]
1 | C[C@H](NS(=O)(=O)c1ccc(OC/C(F)=C\CN)cc1)c1ccccc1.Cl [(S,E)-4-(4-Amino-2-fluorobut-2-enyloxy)-N-(1-phenylethyl)benzenesulfonamide] | < 50 | < 50 | < 1 | – | – | –
2 | NC/C(=C/F)CCc1ccc(F)cc1 [Mofegiline, reference compound] | < 1 | < 1 | – | 0.021 | – | –
3 | CS(=O)(=O)c1ccc(OC/C(F)=C\CN)cc1.Cl [(E)-3-Fluoro-4-(4-(methylsulfonyl)phenoxy)but-2-en-1-amine hydrochloride] | < 300 | < 100 | < 1 | – | – | –
4 | Cc1nc2cc(OC/C(F)=C\CN)ccc2s1.Cl [(E)-3-Fluoro-4-(2-methylbenzo[d]thiazol-5-yloxy)but-2-en-1-amine hydrochloride] | < 100 | < 50 | < 1 | – | – | –
5 | NC/C=C(/F)COc1ccc(C(=O)NC2CCCCC2)cc1 [(E)-4-(4-amino-2-fluorobut-2-enyloxy)-N-cyclohexylbenzamide hydrochloride] | – | – | < 1 | – | < 50 | < 50
